PMC6225485, “Computational screening of chalcones acting against topoisomerase IIα and their cytotoxicity towards cancer cell lines” (Journal of Enzyme Inhibition and Medicinal Chemistry, 2018)

Molecular target: T1, human topoisomerase IIα (rhTopoIIα ATPase domain) (Homo sapiens, UniProt P11388)
T1 construct: gene TOP2A; ATPase domain (45 kDa, recombinant, pET28b-hTopoIIα-ATPase)
Test: ADP-Glo ATPase assay with purified recombinant ATPase domain
Type: biochemical
Conditions: read-out: IC50 against rhTopoIIα ATPase domain

T1 sequence (P11388 29-428 limits assumed): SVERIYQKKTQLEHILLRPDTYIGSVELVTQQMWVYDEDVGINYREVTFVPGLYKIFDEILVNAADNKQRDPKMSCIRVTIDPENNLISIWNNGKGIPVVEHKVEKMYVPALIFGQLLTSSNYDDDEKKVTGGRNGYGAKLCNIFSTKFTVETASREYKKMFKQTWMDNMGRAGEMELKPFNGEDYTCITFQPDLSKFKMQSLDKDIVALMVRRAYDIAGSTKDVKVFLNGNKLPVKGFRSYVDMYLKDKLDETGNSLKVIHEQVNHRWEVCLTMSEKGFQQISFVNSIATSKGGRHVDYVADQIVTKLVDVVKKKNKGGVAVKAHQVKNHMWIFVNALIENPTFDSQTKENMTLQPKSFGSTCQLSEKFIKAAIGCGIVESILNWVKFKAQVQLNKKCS

IC50 [nM]	SMILES
7.5 ± 4.2	COc1cc(O)c(C(=O)/C=C/c2cc(OC)c(OC)c(OC)c2)c(OC)c1 [3d, chalcone 3d]
326 ± 6.6	Cc1ccc2c(c1CCC(O)C(C)(C)O)C(=O)C(=O)C(C(C)C)=C2 (centres unmarked) [Salvicine]
